pEC50: −log10 of the molar value.

For data set [1], the system named is Human immunodeficiency virus 1. Put plainly: Antiviral activity against HIV-1 NL(AD8) in human PM1/CCR5 cells assessed as virus induced cytopathic effect incubated for 5 days by MTT assay. The class given is functional, organism-based. To be noted: Human immunodeficiency virus 1, NL(AD8), PM1/CCR5, 120 h.
In data set [2] the test system is Human immunodeficiency virus 1. Put plainly: Antiviral activity against HIV-1 NL4-3 in human MT-4 cells assessed as virus induced cytopathic effect incubated for 5 days by MTT assay. The data set is classed as functional, organism-based. To be noted: Human immunodeficiency virus 1, NL4-3, MT4, 120 h.
Data set [3] is described as follows: Cytotoxicity against in human MT-4 after 5 days by MTT assay. The settings on record: MT-4 cells, time 5 day. The data set is classed as cell-based, MT4.
The subject of data set [4] is Human immunodeficiency virus 1. Put plainly: Antiviral activity against HIV-1 NL4-3 in human MT-4 cells assessed as virus induced cytopathic effect at 25 uM incubated for 5 days by MTT assay. The data set is classed as functional. To be noted: Human immunodeficiency virus 1, NL4-3, MT4, 120 h, time 5 day.
Data set [5] has as its system Human immunodeficiency virus 1. Put plainly: Antiviral activity against HIV-1 NL(AD8) in human PM1/CCR5 cells assessed as virus induced cytopathic effect at 50 uM incubated for 5 days by MTT assay. The data set is classed as functional. The settings on record: Human immunodeficiency virus 1, NL(AD8), PM1/CCR5, 120 h, time 5 day.

For `CSCC[C@H](NC(=O)[C@H](Cc1c[nH]c2ccccc12)NC(=O)[C@H](CC(N)=O)NC(=O)[C@H](CCCCN)NC(=O)[C@@H](NC(C)=O)C(C)C)C(=O)N[C@H](C(=O)N[C@@H](CCC(=O)O)C(=O)N[C@H](C(=O)N[C@@H](CC(C)C)C(=O)N[C@@H](CC(C)C)C(=O)N[C@H](C(=O)N[C@@H](CCC(N)=O)C(=O)N[C@@H](CC(N)=O)C(=O)N[C@@H](C)C(=O)N[C@@H](CC(N)=O)C(=O)NCC(=O)N[C@@H](CSCC(=O)N[C@@H](CCCNC(=N)N)C(=O)N[C@@H](CCCNC(=N)N)C(=O)N[C@@H](CCCNC(=N)N)C(=O)N[C@@H](CCCNC(=N)N)C(=O)N[C@@H](CCCNC(=N)N)C(=O)N[C@@H](CCCNC(=N)N)C(=O)N[C@@H](CCCNC(=N)N)C(=O)N[C@@H](CCCNC(=N)N)C(N)=O)C(N)=O)C(C)C)[C@@H](C)O)[C@@H](C)O`, the negative-log EC50 (pEC50) in data set [1] was 4.30; in data set [2], less than 4.30. In data set [3], the 50% cytotoxic concentration (CC50) at 120 h is more than 50 µM. In addition, in data set [4], the inhibition at 25 µM worked out at 27%. For the same molecule, in data set [5], the inhibition at 50 µM is 40%.
For the molecule `c1cc(CN2CCCNCCNCCCNCC2)ccc1CN1CCCNCCNCCCNCC1` [PLERIXAFOR], the pEC50 in data set [1] was less than 4.30; in data set [2], 7.31. The molecule further gave a 50% cytotoxic concentration (CC50) at 120 h in data set [3] of more than 50 µM.
For `CC[C@H](C)[C@H](NC(=O)[C@@H](NC(=O)[C@H](CCCCN)NC(=O)[C@H](CO)NC(=O)[C@H](CC(=O)O)NC(=O)[C@@H]1CCCN1C(=O)[C@H](CC(N)=O)NC(=O)[C@H](C)NC(=O)[C@H](CC(N)=O)NC(=O)[C@H](CCC(N)=O)NC(=O)[C@@H](NC(=O)[C@H](CC(C)C)NC(=O)[C@H](CC(C)C)NC(=O)[C@@H](NC(=O)[C@H](CCC(=O)O)NC(=O)[C@@H](NC(=O)[C@H](CCSC)NC(=O)[C@H](Cc1c[nH]c2ccccc12)NC(=O)[C@H](CC(N)=O)NC(=O)[C@H](CCCCN)NC(=O)[C@@H](NC(=O)[C@H](CCC(=O)O)NC(=O)[C@H](CCC(N)=O)NC(=O)[C@H](CO)NC(C)=O)C(C)C)[C@@H](C)O)[C@@H](C)O)C(C)C)[C@@H](C)O)C(=O)N[C@@H](CC(C)C)C(=O)N[C@@H](CCCCN)C(=O)N[C@@H](C)C(=O)N[C@@H](CC(C)C)C(=O)NCC(=O)N1CCC[C@H]1C(=O)NCC(=O)N[C@@H](C)C(=O)N[C@H](C(=O)NCC(=O)N[C@@H](CSCC(=O)N[C@@H](CCCNC(=N)N)C(=O)N[C@@H](CCCNC(=N)N)C(=O)N[C@@H](CCCNC(=N)N)C(=O)N[C@@H](CCCNC(=N)N)C(=O)N[C@@H](CCCNC(=N)N)C(=O)N[C@@H](CCCNC(=N)N)C(=O)N[C@@H](CCCNC(=N)N)C(=O)N[C@@H](CCCNC(=N)N)C(N)=O)C(N)=O)[C@@H](C)O`, in that order: 4.30, 4.66 and more than 50 µM.
Taken in the same sequence, the figures for `COC[C@@H](c1ccc(C(F)(F)F)cc1)N1CCN(C2(C)CCN(C(=O)c3c(C)ncnc3C)CC2)C[C@@H]1C` [VICRIVIROC] were 6.68, less than 5.30 and more than 5 µM.
For the molecule `Cc1cn([C@H]2C[C@H](N=[N+]=[N-])[C@@H](CO)O2)c(=O)[nH]c1=O` [ZIDOVUDINE], the pEC50 was 5.48 in data set [1] and 7.03 in data set [2]. The molecule also had a cytotoxic concentration (CC50) at 120 h in data set [3] of 74 µM.
For the molecule `CC[C@H](C)[C@H](NC(=O)[C@@H](NC(=O)[C@H](CCCCN)NC(=O)[C@H](CO)NC(=O)[C@H](CC(=O)O)NC(=O)[C@@H]1CCCN1C(=O)[C@H](CC(N)=O)NC(=O)[C@H](C)NC(=O)[C@H](CC(N)=O)NC(=O)[C@H](CCC(N)=O)NC(=O)[C@@H](NC(=O)[C@H](CC(C)C)NC(=O)[C@H](CC(C)C)NC(=O)[C@@H](NC(=O)[C@H](CCC(=O)O)NC(=O)[C@@H](NC(=O)[C@H](CCSC)NC(=O)[C@H](Cc1c[nH]c2ccccc12)NC(=O)[C@H](CC(N)=O)NC(=O)[C@H](CCCCN)NC(=O)[C@@H](NC(=O)[C@H](CCC(=O)O)NC(=O)[C@H](CCC(N)=O)NC(=O)[C@H](CO)NC(C)=O)C(C)C)[C@@H](C)O)[C@@H](C)O)C(C)C)[C@@H](C)O)C(=O)N[C@@H](CC(C)C)C(=O)N[C@@H](CCCCN)C(=O)N[C@@H](C)C(=O)N[C@@H](CC(C)C)C(=O)NCC(=O)N[C@@H](CSCC(=O)N[C@@H](CCCNC(=N)N)C(=O)N[C@@H](CCCNC(=N)N)C(=O)N[C@@H](CCCNC(=N)N)C(=O)N[C@@H](CCCNC(=N)N)C(=O)N[C@@H](CCCNC(=N)N)C(=O)N[C@@H](CCCNC(=N)N)C(=O)N[C@@H](CCCNC(=N)N)C(=O)N[C@@H](CCCNC(=N)N)C(N)=O)C(N)=O`, the negative logarithm of the EC50 (pEC50) in data set [1] is 4.30; in data set [2], less than 4.60. The molecule also returned a CC50 at 120 h in data set [3] of 21 µM. For the same molecule, the inhibition at 25 µM in data set [4] amounted to 39%.

For the origin of these results see ChEMBL document CHEMBL4680307, “Potent leads based on CA-19L, an anti-HIV active HIV-1 capsid fragment” (Bioorg Med Chem, 2021).
